Reference: patent US20040110802A1, “Antibacterial benzoic acid derivatives” (priority 2002, published 2004)
In brackets after ≈: the same amount, converted by molar mass.

system: SAUR 9218; experiment: MIC Test Method, standard agar dilution; format: cell-based; details: agar dilution, Mueller Hinton agar, incubated overnight at 35° C.; lowest concentration that inhibits visible growth; read-out: SAUR 9218 MIC
Procedure: The in vitro MiCs of test compounds were determined by a standard agar dilution method. A stock drug solution of each analog was prepared in the preferred solvent, usually DMSO:H2O (1:3). Serial 2-fold dilutions of each sample are made using 1.0 ml aliquots of sterile distil]ed water. To each 1.0 ml aliquot of drug was added 9 ml of molten Mueller Hinton agar medium. The drug-supplemented agar was mixed, poured into 15×100 mm petri dishes, and allowed to solidify and dry prior to inoculation.
Vials of each of the test organisms are maintained frozen in the vapor phase of a liquid nitrogen freezer. Test cultures are grown overnight at 35° C. on the medium appropriate for the organism. Colonies are harvested with a sterile swab, and cell suspensions are prepared in Trypticase Soy broth (TSB) to equal the turbidity of a 0.5 McFamland standard. A 1:20 dilution of each suspension was made in TSB. The plates containing the drug supplemented agar are inoculated with a 0.001 ml drop of the cell suspension using a Steers replicator, yielding approximately 10^4 to 10^5 cells per spot. The plates are incubated overnight at 35° C.
Following incubation the Minimum Inhibitory Concentration (MIC μg/ml), the lowest concentration of drug that inhibits visible growth of the organism, was read and recorded.

SMILES | MIC
O=C(Nc1ccc(Br)cc1C(=O)O)c1ccc2ccccc2n1 | 8 µg/mL (≈ 21.6 µM)
O=C(O)c1cc(Br)ccc1NC(=O)c1ccnc2ccccc12 | > 128 µg/mL
CSc1ncccc1C(=O)Nc1ccc(Br)cc1C(=O)O | > 128 µg/mL
O=C(Nc1ccc(Br)cc1C(=O)O)c1cnc2ccccc2n1 | 8 µg/mL (≈ 21.5 µM)
CC1=C(C(=O)Nc2ccc(Br)cc2C(=O)O)Cc2ccccc21 | 8 µg/mL (≈ 21.5 µM)
COc1cccc2cc(C(=O)Nc3ccc(Br)cc3C(=O)O)oc12 | 32 µg/mL (≈ 82 µM)
Cc1cnc(C(=O)Nc2ccc(Br)cc2C(=O)O)cn1 | 128 µg/mL (≈ 381 µM)
O=C(Nc1ccc(Br)cc1C(=O)O)c1cnc(Cl)c(Cl)c1 | 4 µg/mL (≈ 10.3 µM)
CC(C)CCSc1cnc(C(=O)Nc2ccc(C#N)cc2C(=O)O)cn1 | 0.125 µg/mL (≈ 0.337 µM)
CC(C)CSc1cnc(C(=O)Nc2ccc(C#N)cc2C(=O)O)cn1 | 0.25 µg/mL (≈ 0.701 µM)
COc1cnc(C(=O)Nc2ccc(C#N)cc2C(=O)O)cn1 | 8 µg/mL (≈ 26.8 µM)
Cn1c(C(=O)Nc2ccc(C#N)cc2C(=O)O)cc2cccc(NC(=O)NCc3ccccc3)c21 | 0.125 µg/mL (≈ 0.267 µM)
Cn1c(C(=O)Nc2ccc(C#N)cc2C(=O)O)cc2cccc(NC(=O)NCC(O)CO)c21 (centres unmarked) | 4 µg/mL (≈ 8.86 µM)
CN(CC(O)C(O)C(O)C(O)CO)C(=O)Nc1cccc2cc(C(=O)Nc3ccc(C#N)cc3C(=O)O)n(C)c12 (centres unmarked) | 32 µg/mL (≈ 57.6 µM)
Cn1c(C(=O)Nc2ccc(C#N)cc2C(=O)O)cc2cccc(OCC3COc4ccccc4O3)c21 (centres unmarked) | 0.125 µg/mL (≈ 0.259 µM)
CCOCCOCCOc1ccccc1-c1cc(C(=O)Nc2ccc(C#N)cc2C(=O)O)no1 | 0.5 µg/mL (≈ 1.07 µM)
CCCCCCOc1ccccc1-c1cc(C(=O)Nc2ccc(C#N)cc2C(=O)O)no1 | 0.5 µg/mL (≈ 1.15 µM)
C=CCOc1ccccc1-c1cc(C(=O)Nc2ccc(C#N)cc2C(=O)O)no1 | 0.125 µg/mL (≈ 0.321 µM)
N#Cc1ccc(NC(=O)c2cc(-c3ccccc3OCC3COc4ccccc4O3)on2)c(C(=O)O)c1 (centres unmarked) | 0.25 µg/mL (≈ 0.503 µM)
N#Cc1ccc(NC(=O)c2cc3cccc(OCc4ccccc4)c3[nH]2)c(C(=O)O)c1 | 0.125 µg/mL (≈ 0.304 µM)
Cn1c(C(=O)Nc2ccc(C#N)cc2C(=O)O)cc2cccc(OCCCOc3ccccc3)c21 | 0.125 µg/mL (≈ 0.266 µM)
N#Cc1ccc(NC(=O)c2cc(CO)on2)c(C(=O)O)c1 | 8 µg/mL (≈ 27.9 µM)
CCCCCCOc1cnc(C(=O)Nc2ccc(C#N)cc2C(=O)O)cn1 | 0.125 µg/mL (≈ 0.339 µM)
CC(=O)Nc1ccc2onc(C(=O)Nc3ccc(C#N)cc3C(=O)O)c2c1 | 2 µg/mL (≈ 5.49 µM)

SMILES | MIC
CS(=O)(=O)Nc1ccc2onc(C(=O)Nc3ccc(C#N)cc3C(=O)O)c2c1 | 0.5 µg/mL (≈ 1.25 µM)
CC1(C)OCC(CCc2cc(C(=O)Nc3ccc(Br)cc3C(=O)O)no2)O1 (centres unmarked) | 4 µg/mL (≈ 9.11 µM)
N#Cc1ccc(NC(=O)c2noc3ccc(NC(=O)c4ccccc4)cc23)c(C(=O)O)c1 | 1 µg/mL (≈ 2.35 µM)
N#Cc1ccc(NC(=O)c2noc3ccc(NS(=O)(=O)c4ccccc4)cc23)c(C(=O)O)c1 | 0.125 µg/mL (≈ 0.27 µM)
CCOc1ccccc1-c1cc(C(=O)Nc2ccc(C#N)cc2C(=O)O)no1 | 0.125 µg/mL (≈ 0.331 µM)
N#Cc1ccc(NC(=O)c2cc(-c3ccccc3OCC3CCCCO3)on2)c(C(=O)O)c1 (centres unmarked) | 2 µg/mL (≈ 4.47 µM)
Cn1c(C(=O)Nc2ccc(C#N)cc2C(=O)O)cc2cccc(OCC3CCC3)c21 | 0.125 µg/mL (≈ 0.31 µM)
N#Cc1ccc(NC(=O)c2cc(-c3ccccc3OCCCOc3ccccc3)on2)c(C(=O)O)c1 | 0.5 µg/mL (≈ 1.03 µM)
Cn1c(C(=O)Nc2ccc(C#N)cc2C(=O)O)cc2cccc(OCc3ccco3)c21 | 0.125 µg/mL (≈ 0.301 µM)
Cn1c(C(=O)Nc2ccc(C#N)cc2C(=O)O)cc2cccc(O/C=C3/COC(C)(C)O3)c21 | 0.25 µg/mL (≈ 0.559 µM)
Cn1c(C(=O)Nc2ccc(C#N)cc2C(=O)O)cc2cccc(OC[C@H](O)CO)c21 | 0.5 µg/mL (≈ 1.22 µM)
N#Cc1ccc(NC(=O)c2cc(-c3ccccc3O)on2)c(C(=O)O)c1 | 0.125 µg/mL (≈ 0.358 µM)
N#Cc1ccc(NC(=O)c2cc(-c3ccccc3OC3CCOC3)on2)c(C(=O)O)c1 (centres unmarked) | 0.25 µg/mL (≈ 0.596 µM)
N#Cc1ccc(NC(=O)c2cc(-c3ccccc3OC3CCC3)on2)c(C(=O)O)c1 | 0.125 µg/mL (≈ 0.31 µM)
N#Cc1ccc(NC(=O)c2cc(-c3ccccc3OC3CCOCC3)on2)c(C(=O)O)c1 | 0.25 µg/mL (≈ 0.577 µM)
C[C@@H]1CCCC1Oc1ccccc1-c1cc(C(=O)Nc2ccc(C#N)cc2C(=O)O)no1 (some centres unmarked) | 0.125 µg/mL (≈ 0.29 µM)
COCC(C)Oc1ccccc1-c1cc(C(=O)Nc2ccc(C#N)cc2C(=O)O)no1 (centres unmarked) | 0.25 µg/mL (≈ 0.593 µM)
CCCC(C)Oc1ccccc1-c1cc(C(=O)Nc2ccc(C#N)cc2C(=O)O)no1 (centres unmarked) | 0.125 µg/mL (≈ 0.298 µM)
N#Cc1ccc(NC(=O)c2cc(-c3ccccc3OCC3CCC3)on2)c(C(=O)O)c1 | 0.125 µg/mL (≈ 0.299 µM)
Cn1c(C(=O)Nc2ccc(C#N)cc2C(=O)O)cc2cccc(OC3CCC3)c21 | 0.125 µg/mL (≈ 0.321 µM)
COCC(C)Oc1cccc2cc(C(=O)Nc3ccc(C#N)cc3C(=O)O)n(C)c12 (centres unmarked) | 0.125 µg/mL (≈ 0.307 µM)
CC(C)Oc1cccc2cc(C(=O)Nc3ccc(C#N)cc3C(=O)O)n(C)c12 | 0.125 µg/mL (≈ 0.331 µM)
Cn1c(C(=O)Nc2ccc(C#N)cc2C(=O)O)cc2cccc(OCc3ccccc3)c21 | 0.125 µg/mL (≈ 0.294 µM)
N#Cc1ccc(NC(=O)c2noc3cc(Cl)ccc23)c(C(=O)O)c1 | 1 µg/mL (≈ 2.93 µM)

SMILES | MIC
O=C(O)c1cc(Br)ccc1NC(=O)c1noc2cc(Cl)ccc12 | 1 µg/mL (≈ 2.53 µM)
N#Cc1ccc(NC(=O)c2cc(-c3ccccc3OCC3C=CCCC3)on2)c(C(=O)O)c1 (centres unmarked) | 2 µg/mL (≈ 4.51 µM)
N#Cc1ccc(NC(=O)COc2ccccc2-c2cc(C(=O)Nc3ccc(C#N)cc3C(=O)O)no2)c(C(=O)O)c1 | 128 µg/mL (≈ 232 µM)
CCC(CC)Oc1ccccc1-c1cc(C(=O)Nc2ccc(C#N)cc2C(=O)O)no1 | 4 µg/mL (≈ 9.54 µM)
Cc1ncsc1CCOc1ccccc1-c1cc(C(=O)Nc2ccc(C#N)cc2C(=O)O)no1 | 128 µg/mL (≈ 270 µM)
CC(Oc1ccccc1-c1cc(C(=O)Nc2ccc(C#N)cc2C(=O)O)no1)C1CCCCC1 (centres unmarked) | 1 µg/mL (≈ 2.18 µM)
CCC(C)Oc1ccc2cc(C(=O)Nc3ccc(C#N)cc3C(=O)O)n(C)c2c1 (centres unmarked) | 16 µg/mL (≈ 40.9 µM)
CCCCOc1ccc2cc(C(=O)Nc3ccc(C#N)cc3C(=O)O)n(C)c2c1 | 16 µg/mL (≈ 40.9 µM)
N#Cc1ccc(NC(=O)c2noc3ccc(NS(=O)(=O)c4ccc(F)cc4)cc23)c(C(=O)O)c1 | 0.125 µg/mL (≈ 0.26 µM)
N#Cc1ccc(NC(=O)c2cnc(-c3ccccc3C(F)(F)F)cn2)c(C(=O)O)c1 | 32 µg/mL (≈ 77.6 µM)
CCC(=O)COc1ccccc1-c1cc(C(=O)Nc2ccc(O)cc2C(=O)O)no1 | 1 µg/mL (≈ 2.44 µM)
O=C(COc1ccccc1-c1cc(C(=O)Nc2ccc(O)cc2C(=O)O)no1)c1ccccc1 | 0.5 µg/mL (≈ 1.09 µM)
O=C(Nc1ccc(O)cc1C(=O)O)c1cc(-c2ccccc2Br)on1 | 0.125 µg/mL (≈ 0.31 µM)
O=C(Nc1ccc(O)cc1C(=O)O)c1cc(-c2ccccc2-c2ccccc2)on1 | 0.125 µg/mL (≈ 0.312 µM)
N#Cc1ccc(NC(=O)c2noc3ccc(N)cc23)c(C(=O)O)c1 | 0.5 µg/mL (≈ 1.55 µM)
COc1ccc(CNc2cnc(C(=O)Nc3ccc(N)cc3C(=O)O)cn2)cc1 | 0.25 µg/mL (≈ 0.635 µM)
COc1cccc(-c2cc(C(=O)Nc3ccc(O)cc3C(=O)O)no2)c1 | 0.25 µg/mL (≈ 0.706 µM)
N#Cc1ccc(NC(=O)c2cnc(-c3ccccc3F)cn2)c(C(=O)O)c1 | 4 µg/mL (≈ 11 µM)
O=C(Nc1ccc(Br)cc1C(=O)O)c1cnc(/C=C/C2COC3(CCCCC3)O2)cn1 (centres unmarked) | 8 µg/mL (≈ 16.4 µM)
N#Cc1ccc(NC(=O)c2noc3ccc(Br)cc23)c(C(=O)O)c1 | 0.125 µg/mL (≈ 0.324 µM)
N#Cc1ccc(NC(=O)c2noc3cc(NS(=O)(=O)Cc4ccccc4)ccc23)c(C(=O)O)c1 | 1 µg/mL (≈ 2.1 µM)
N#Cc1ccc(NC(=O)c2noc3cc(NS(=O)(=O)c4ccccc4)ccc23)c(C(=O)O)c1 | 1 µg/mL (≈ 2.16 µM)
Cn1c(C(=O)Nc2ccc(C#N)cc2C(=O)O)cc2cccc(OCC3CCCCC3)c21 | 0.25 µg/mL (≈ 0.579 µM)
Cn1c(C(=O)Nc2ccc(C#N)cc2C(=O)O)cc2cccc(OCC3CC3)c21 | 0.125 µg/mL (≈ 0.321 µM)

SMILES | MIC
Cn1c(C(=O)Nc2ccc(C#N)cc2C(=O)O)cc2cccc(OCC3CCCCO3)c21 (centres unmarked) | 0.5 µg/mL (≈ 1.15 µM)
CCCCCOc1cccc2cc(C(=O)Nc3ccc(C#N)cc3C(=O)O)n(C)c12 | 0.125 µg/mL (≈ 0.308 µM)
N#Cc1ccc(NC(=O)c2cc(CCl)on2)c(C(=O)O)c1 | 4 µg/mL (≈ 13.1 µM)
N#Cc1ccc(NC(=O)c2cc(CN3CCOCC3)on2)c(C(=O)O)c1 | 16 µg/mL (≈ 44.9 µM)
N#Cc1ccc(NC(=O)c2noc3ccc(-c4ccccc4)cc23)c(C(=O)O)c1 | 0.125 µg/mL (≈ 0.326 µM)
O=C(O)c1cc(Br)ccc1NC(=O)c1noc2ccc(Br)cc12 | 1 µg/mL (≈ 2.27 µM)
N#Cc1ccc(NC(=O)c2cc(-c3ccccc3OCCCCCCl)on2)c(C(=O)O)c1 | 0.125 µg/mL (≈ 0.275 µM)
COCc1onc(C(=O)Nc2ccc(C#N)cc2C(=O)O)c1COC | 16 µg/mL (≈ 46.3 µM)
N#Cc1ccc(NC(=O)c2noc3ccc(-c4ccccc4C(F)(F)F)cc23)c(C(=O)O)c1 | 0.125 µg/mL (≈ 0.277 µM)
Cc1ccccc1-c1cnc(C(=O)Nc2ccc(C#N)cc2C(=O)O)cn1 | 32 µg/mL (≈ 89.3 µM)
COc1ccc(-c2cnc(C(=O)Nc3ccc(C#N)cc3C(=O)O)cn2)c(OC)c1OC | > 128 µg/mL
COCCOc1cccc2cc(C(=O)Nc3ccc(C#N)cc3C(=O)O)n(C)c12 | 0.25 µg/mL (≈ 0.635 µM)
CC(C)OCC(O)COc1cccc2cc(C(=O)Nc3ccc(C#N)cc3C(=O)O)n(C)c12 (centres unmarked) | 0.25 µg/mL (≈ 0.554 µM)
N#Cc1ccc(NC(=O)c2noc3cc(-c4ccccc4)ccc23)c(C(=O)O)c1 | 0.125 µg/mL (≈ 0.326 µM)
N#Cc1ccc(NC(=O)c2noc3cc(-c4ccccc4C(F)(F)F)ccc23)c(C(=O)O)c1 | 0.125 µg/mL (≈ 0.277 µM)
N#Cc1ccc(NC(=O)c2cc(CNCc3ccccc3)on2)c(C(=O)O)c1 | 2 µg/mL (≈ 5.31 µM)
N#Cc1ccc(NC(=O)c2cc(CN(CCO)CCO)on2)c(C(=O)O)c1 | 8 µg/mL (≈ 21.4 µM)
N#Cc1ccc(NC(=O)c2cc(CN=[N+]=[N-])on2)c(C(=O)O)c1 | 4 µg/mL (≈ 12.8 µM)
CCCCCCCCCSc1cnc(C(=O)Nc2ccc(C#N)cc2C(=O)O)cn1 | 2 µg/mL (≈ 4.69 µM)
CSCCOc1cccc2cc(C(=O)Nc3ccc(C#N)cc3C(=O)O)n(C)c12 | 0.25 µg/mL (≈ 0.611 µM)
N#Cc1ccc(NC(=O)C2=NOC(c3ccccc3)C2)c(C(=O)O)c1 (centres unmarked) | 4 µg/mL (≈ 11.9 µM)
N#Cc1ccc(NC(=O)c2noc3c2CCc2ccccc2-3)c(C(=O)O)c1 | 0.06 µg/mL (≈ 0.167 µM)
N#Cc1ccc(NC(=O)c2cc3cccn3cn2)c(C(=O)O)c1 | 32 µg/mL (≈ 104 µM)
